# Test results taken from ChEMBL document CHEMBL1145674, “Isolation and identification of "diazepam-like" compounds from bovine urine” (J Nat Prod, 1983).
# Legend:
# Format in all cases: cell membranes
# [1] = Displacement of [3H]diazepam from benzodiazepine receptor in rat cerebral cortex membrane
# Rattus norvegicus [2] = organism: Rattus norvegicus; test: Increase in [3H]diazepam binding to benzodiazepine receptor in rat cerebral cortex membrane at 1 mM relative to control
# Rattus norvegicus [3] = organism: Rattus norvegicus; test: Increase in [3H]diazepam binding to benzodiazepine receptor in rat cerebral cortex membrane at 0.5 mM relative to control
smiles,measurement,setting,value
O=c1c(-c2cccc(O)c2)coc2cc(O)ccc12,IC50,[1],140 µM
Clc1ccc2[nH]c3ccccc3c2c1,Activity,Rattus norvegicus [2],172%
same,Activity,Rattus norvegicus [3],143%
Oc1cccc(C2COc3cc(O)ccc3C2)c1 (racemic),IC50,[1],45 µM
COc1ccc2c(c1)OCC(c1ccc(O)cc1)C2 (racemic),IC50,[1],1300 µM
COc1ccc(C2COc3cc(O)ccc3C2)cc1 (racemic),IC50,[1],1500 µM
Oc1ccc([C@H]2COc3cc(O)ccc3C2)cc1 [AUS-131],IC50,[1],80 µM
CN1C(=O)CN=C(c2ccccc2)c2cc(Cl)ccc21 [DIAZEPAM],IC50,[1],0.005 µM
COc1ccc(-c2coc3cc(O)ccc3c2=O)cc1 [FORMONONETIN],IC50,[1],700 µM
O=c1[nH]cnc2nc[nH]c12 [HYPOXANTHINE],IC50,[1],700 µM
O=c1[nH]cnc2c1ncn2[C@@H]1O[C@H](CO)[C@@H](O)[C@H]1O [INOSINE],IC50,[1],900 µM
COc1ccc2c(=O)c(-c3ccc(O)cc3)coc2c1 [ISOFORMONENTIN],IC50,[1],1100 µM
NC(=O)c1cccnc1 [NIACINAMIDE],IC50,[1],3900 µM
